Like-named read-outs stand apart in the source and are kept apart here.

Series [1] concerns the target T1, tri-MBD1 (Homo sapiens, UniProt Q9UIS9).
T1 construct: Genes encoding tri-MBD1 (tandem three MBD1 1–105 ORF); made in house; host or cells: E. coli BL21(DE3) codon plus RIPL
T1 sequence (Q9UIS9 with tags, fused parts or gaps): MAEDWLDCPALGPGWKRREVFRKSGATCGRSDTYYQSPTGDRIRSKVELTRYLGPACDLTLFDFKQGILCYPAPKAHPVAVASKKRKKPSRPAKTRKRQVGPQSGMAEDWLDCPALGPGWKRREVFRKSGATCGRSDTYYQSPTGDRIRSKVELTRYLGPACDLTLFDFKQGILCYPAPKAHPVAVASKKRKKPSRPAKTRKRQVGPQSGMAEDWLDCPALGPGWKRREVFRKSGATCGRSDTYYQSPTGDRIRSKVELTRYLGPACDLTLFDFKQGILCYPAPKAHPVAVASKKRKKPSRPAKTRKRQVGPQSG
Briefly: Counter screen: binding of methyl-binding protein tri-MBD1 without enzyme. From the text:
(§1) False-positive compounds should be abandoned during the high-throughput screening. […] This entails replacing half of the substrate oligonucleotide with product oligonucleotide in the absence of the enzyme and adding the methyl-binding protein into the wells. The FP signal can then be measured according to the above steps.
(§2) Finally, we performed high-throughput screening against DNMT1 and ALKBH5 for an in-house library of 2000 compounds. […] Half of the substrate oligonucleotide was replaced with the product (chemical synthetic) in the assay (the enzyme was removed), in which case the false-positive compounds would still influence the FP signal value while the true hits would not. […] We performed a cofactor-competitive assay to evaluate the biological activity and mechanism of action of hit compounds.
In general terms: The purpose of a counterscreen is to sort out artefacts and off-target activity.

In series [2] the target is T2, METTL3/14 (Homo sapiens, UniProt Q86U44).
T2 construct: The full-length METTL3 and METTL14 plasmids were obtained from Professor Ping Yin; made in house; host or cells: E. coli BL21(DE3) codon plus RIPL
Description: HTMR (FP-based) METTL3/METTL14 methylation assay. Type of series: biochemical. The settings on record: from IC50 vs SAM concentration line, Cheng-Prusoff. As to the method: (§3) To start the assay, the binding curve of the substrate oligonucleotide and the product oligonucleotide (chemical synthetic) were titrated to determine the proper concentration of methyl-binding proteins. The final NaCl conditions of DNMT1, TET2, METTL3/14 and ALKBH5 were 400, 300, 250 and 250 mM, respectively. The assays could be performed in 10 μl + 10 μl, 20 μl + 20 μl (as in this study), or other formats in a black 384-well plate (Corning #3575). The former is the reaction volume containing enzyme, oligonucleotide, and cofactors, while the latter is the volume of methyl-binding protein. The reaction was initiated by the addition of the enzymes or the substrates and terminated by the addition of methyl-binding proteins. The FP signals were then measured in fluorescence polarization standard mode by EnVision Multilabel Reader (PerkinElmer) after 10–15 min of incubation. The plate can be repeatedly measured. […] All data were analyzed in GraphPad Prism 7.0.
The enzymes, oligonucleotides, and cofactors were diluted in a reaction buffer containing 20 mM HEPES, pH 7.4, 1 mM DTT and 0.4 U/μl RNase inhibitor (BBI Life sciences). […] After 10–15 min of incubation, the plate was read by Envision (PerkinElmer).
(§4) All the curves were plotted in the Graphpad prism 7.0. And the IC50 values were determined by the log(inhibitor) versus response—variable slope (four parameters) model in Graphpad prism 7.0. […]

Series [3] has as its target T3, DNMT1 (Homo sapiens, UniProt P26358).
T3 construct: The human DNMT1 (351–1600) gene with N terminal 6xHis tag and a TEV cleavage site; 6xHis (N); TEV cleavage site (N); made in house; host or cells: Spodoptera frugiperda Sf9 (baculovirus)
Description: DNMT1 FP binding assay (DNA binding of the enzyme). As to the method: (§5) The FP binding assay of DNMT1 and METTL3/14 was performed in a buffer containing 20 mM HEPES, pH 7.4, and 1 mM DTT. The FP binding assay of TET2 and ALKBH5 was performed in the reaction buffer that removes the NaCl. At high concentrations of NaCl (over 100 mM), weak FP signals were detected for the enzymes.

For series [4], the target named is T4, DNMT1(351–1600) (Homo sapiens, UniProt P26358).
T4 construct: The human DNMT1 (351–1600) gene with N terminal 6xHis tag and a TEV cleavage site; 6xHis (N); TEV cleavage site (N); made in house; host or cells: Spodoptera frugiperda Sf9 (baculovirus)
Briefly: HTMR (FP-based) DNMT1 methylation assay. It is filed as biochemical.
Description: To start the assay, the binding curve of the substrate oligonucleotide and the product oligonucleotide (chemical synthetic) were titrated to determine the proper concentration of methyl-binding proteins. […] The assays could be performed in 10 μl + 10 μl, 20 μl + 20 μl (as in this study), or other formats in a black 384-well plate (Corning #3575). The former is the reaction volume containing enzyme, oligonucleotide, and cofactors, while the latter is the volume of methyl-binding protein. The reaction was initiated by the addition of the enzymes or the substrates and terminated by the addition of methyl-binding proteins. The FP signals were then measured in fluorescence polarization standard mode by EnVision Multilabel Reader (PerkinElmer) after 10–15 min of incubation. […] All data were analyzed in GraphPad Prism 7.0.
The reaction components (enzyme, oligonucleotide and cofactors) were diluted in a reaction buffer containing 20 mM HEPES, pH 7.4, 1 mM EDTA and 1 mM DTT. […] This was followed by incubation for 10–15 min at RT (room temperature), after which the plate was read by EnVision (PerkinElmer).

In series [5] the target is T5, ALKBH5 (Homo sapiens, UniProt Q6P6C2).
T5 construct: The untagged MBD1 (1–105) and ALKBH5 (66–292) catalytic domain genes were subcloned; made in house; host or cells: E. coli BL21(DE3) codon plus RIPL
Briefly: ALKBH5 FP binding assay (RNA binding of the enzyme). As to the method: as §5

Series [6] addresses T6, ALKBH5(66–292) (Homo sapiens, UniProt Q6P6C2).
T6 construct: The untagged MBD1 (1–105) and ALKBH5 (66–292) catalytic domain genes were subcloned; made in house; host or cells: E. coli BL21(DE3) codon plus RIPL
Briefly: NMR CPMG and STD experiments. Particulars: 200 μM compound, 5 μM ALKBH5. Type of series: binding. As to the method: Saturation transfer difference (STD) and Carr-Purcell-Meiboom-Gill (CPMG) experiments were performed to investigate the interaction between the compound and the protein, as previously described ([65]). All NMR spectra were acquired on a Bruker Avance III 600 MHz NMR spectrometer equipped with a cryoprobe (Bruker Biospin, Germany). The 5 μM ALKBH5(66–292) protein and 200 μM compound were dissolved into a phosphate buffer containing 20 mM NaH2PO4, 20 mM Na2HPO4, pH 7.4, 100 mM NaCl, 95% D2O, 5% DMSO-d6 and then used in NMR data acquisition. Transverse relaxation-edited spectra were recorded using the water-suppressed CPMG pulse sequence. Sixty-four transients were collected into 48 076 data points with a spectral width of 8.0 kHz and an acquisition time of 3.0 s. STD spectrum was recorded using the pulse sequence of stddiffgp19.3 with water suppression (3–9–19 WATERGATE). The on and off resonance excitation positions were defined at –0.17 and 33 ppm, respectively. The bandwidth for the saturation pulse was set to 42.4 Hz. One hundred and twenty-eight transients were collected into 32,768 data points with a spectral width of 9.6 kHz and an acquisition time of 1.71 s.

Series [7] deals with T7, TET2 (Homo sapiens, UniProt Q6N021).
T7 construct: made in house; host or cells: E. coli BL21(DE3) codon plus RIPL
Briefly: HTMR (FP-based) TET2 demethylation assay. It is filed as biochemical.
Description: To start the assay, the binding curve of the substrate oligonucleotide and the product oligonucleotide (chemical synthetic) were titrated to determine the proper concentration of methyl-binding proteins. […] The reaction was initiated by the addition of the enzymes or the substrates and terminated by the addition of methyl-binding proteins. The FP signals were then measured in fluorescence polarization standard mode by EnVision Multilabel Reader (PerkinElmer) after 10–15 min of incubation. […] Additionally, this experiment must avoid strong light exposure.
The reaction buffer containing 20 mM HEPES, pH 8.0, 100 mM NaCl, 1 mM DTT, 1 mM ATP, 1 mM 2-OG, 2 mM ascorbic acid and 100 μM Fe2(NH4)2(SO4)2. Fe^2+ is the last to be added. The reaction contained 40 nM TET2 and 20 nM FAM-labeled fully-methylated DNA occurred at 37°C for 60 min. Next, 20 μl tri-MBD1 (500 nM as final concentration) protein was diluted in 20 mM HEPES, pH 7.4, 500 mM NaCl and transferred into wells to end the reaction. After 10–15 min of incubation, the plate was read by Envision (PerkinElmer).

In series [8] the target is T6, ALKBH5(66–292). Briefly: Thermal shift assay. Type of series: binding. The settings on record: 5 μM ALKBH5, 100 μM compound (molar ratio 1:20); read-out: Tm shift (ΔTm) of ALKBH5. The protocol:
The thermal shift assay was performed with a QuantStudio 6 Flex real-time PCR machine (Applied Biosystems) with a buffer containing 20 mM HEPES, pH 7.4 and 100 mM NaCl. The final system was 20 μl, which contained 5 μM ALKBH5(66–292) protein, 1:1000 dilution of SYPRO Orange dye (purchased from Invitrogen, 5000× stock in DMSO), and DMSO or 100 μM compounds (final DMSO concentration was 0.1%). The samples were heated from 25 to 95°C (2.5°C/min). All samples were performed in triplicate and data were analyzed by Protein Thermal Shift Software version 1.3 (Applied Biosystems).

Series [9] has as its target T5, ALKBH5. Briefly: HTMR (FP-based) ALKBH5 demethylation assay. It is filed as biochemical. Particulars: different concentrations of 2-OG. As to the method:
as §3, with “The reaction was initiated by the addition of the enzymes or the substrates and terminated by the addition of methyl-binding proteins.” left out
The reaction buffer containing 20 mM HEPES, pH 7.4, 250 mM NaCl, 200 μM 2-OG, 300 μM ascorbic acid, and 50 μM […]. […] The plate can then be read immediately or after 10–15 min of incubation due to an equal concentration of NaCl. After this, the plate can be read by EnVision (PerkinElmer).
as §4

For series [10], the target named is T8, YTHDF1 (Homo sapiens, UniProt Q9BYJ9).
T8 construct: YTHDF1 (361–559), YTHDF2 (380–579) and YTHDC1 (355–492) were chemically synthesized; made in house; host or cells: E. coli BL21(DE3) codon plus RIPL
T8 sequence (Q9BYJ9 361-559): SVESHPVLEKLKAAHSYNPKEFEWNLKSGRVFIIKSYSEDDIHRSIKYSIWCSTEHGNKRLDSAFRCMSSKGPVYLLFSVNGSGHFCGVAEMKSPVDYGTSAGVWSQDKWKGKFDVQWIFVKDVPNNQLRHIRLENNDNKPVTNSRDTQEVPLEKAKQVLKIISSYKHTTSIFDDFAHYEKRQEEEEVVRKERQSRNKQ
Description: Counter screen: binding of methyl-binding protein YTHDF1 without enzyme. Particulars: ALKBH5 assay format, enzyme removed.
Description: as §1, §2

The target in series [11] is T9, GST-YTHDF1 YTH domain (UniProt Q9BYJ9 361-559).
T9 sequence: T8 sequence (Q9BYJ9 361-559)
Description: fluorescence polarization; 250 mM NaCl; over 100-fold selectivity for m6A over unmodified RNA; FP, 384-well; methyl readers at final NaCl 400 mM (DNMT1 assay), 300 mM (TET2), 250 mM (METTL3/14, ALKBH5), 10-15 min; DNMT1 and METTL3/14 binding in 20 mM HEPES pH 7.4, 1 mM DTT with varied NaCl; TET2 and ALKBH5 in reaction buffer without NaCl; temperature not stated. Particulars: protein: recombinant; tags: N-terminal GST; label: 5'-FAM; single strand. On the technique in general: Fluorescence polarisation rises when a labelled molecule tumbles more slowly, as on binding a larger partner.

Series [12] concerns the target T10, tri-MBD1 (GST-MBD1-MBD1-MBD1) (UniProt Q9UIS9 1-105).
T10 chain: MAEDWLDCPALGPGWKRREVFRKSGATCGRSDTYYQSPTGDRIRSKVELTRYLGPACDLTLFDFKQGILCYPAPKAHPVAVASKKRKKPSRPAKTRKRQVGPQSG
Briefly: fluorescence polarization; 400 mM NaCl, 20 nM DNMT1 present; FP, 384-well; methyl readers at final NaCl 400 mM (DNMT1 assay), 300 mM (TET2), 250 mM (METTL3/14, ALKBH5), 10-15 min; DNMT1 and METTL3/14 binding in 20 mM HEPES pH 7.4, 1 mM DTT with varied NaCl; TET2 and ALKBH5 in reaction buffer without NaCl; temperature not stated. The settings on record: protein: recombinant; tags: N-terminal GST (pGEX-6P-1); label: 5'-FAM top strand; blunt.

T5 sequence (Q6P6C2 66-292): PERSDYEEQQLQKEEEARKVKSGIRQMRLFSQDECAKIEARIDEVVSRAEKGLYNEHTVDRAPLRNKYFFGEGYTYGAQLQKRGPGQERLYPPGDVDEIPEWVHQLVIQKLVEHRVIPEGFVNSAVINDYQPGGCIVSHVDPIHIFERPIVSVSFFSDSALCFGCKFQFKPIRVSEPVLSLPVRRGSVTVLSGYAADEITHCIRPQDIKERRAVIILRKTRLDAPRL
T6 sequence (Q6P6C2 66-292): as above
T3 sequence (P26358 351-1600): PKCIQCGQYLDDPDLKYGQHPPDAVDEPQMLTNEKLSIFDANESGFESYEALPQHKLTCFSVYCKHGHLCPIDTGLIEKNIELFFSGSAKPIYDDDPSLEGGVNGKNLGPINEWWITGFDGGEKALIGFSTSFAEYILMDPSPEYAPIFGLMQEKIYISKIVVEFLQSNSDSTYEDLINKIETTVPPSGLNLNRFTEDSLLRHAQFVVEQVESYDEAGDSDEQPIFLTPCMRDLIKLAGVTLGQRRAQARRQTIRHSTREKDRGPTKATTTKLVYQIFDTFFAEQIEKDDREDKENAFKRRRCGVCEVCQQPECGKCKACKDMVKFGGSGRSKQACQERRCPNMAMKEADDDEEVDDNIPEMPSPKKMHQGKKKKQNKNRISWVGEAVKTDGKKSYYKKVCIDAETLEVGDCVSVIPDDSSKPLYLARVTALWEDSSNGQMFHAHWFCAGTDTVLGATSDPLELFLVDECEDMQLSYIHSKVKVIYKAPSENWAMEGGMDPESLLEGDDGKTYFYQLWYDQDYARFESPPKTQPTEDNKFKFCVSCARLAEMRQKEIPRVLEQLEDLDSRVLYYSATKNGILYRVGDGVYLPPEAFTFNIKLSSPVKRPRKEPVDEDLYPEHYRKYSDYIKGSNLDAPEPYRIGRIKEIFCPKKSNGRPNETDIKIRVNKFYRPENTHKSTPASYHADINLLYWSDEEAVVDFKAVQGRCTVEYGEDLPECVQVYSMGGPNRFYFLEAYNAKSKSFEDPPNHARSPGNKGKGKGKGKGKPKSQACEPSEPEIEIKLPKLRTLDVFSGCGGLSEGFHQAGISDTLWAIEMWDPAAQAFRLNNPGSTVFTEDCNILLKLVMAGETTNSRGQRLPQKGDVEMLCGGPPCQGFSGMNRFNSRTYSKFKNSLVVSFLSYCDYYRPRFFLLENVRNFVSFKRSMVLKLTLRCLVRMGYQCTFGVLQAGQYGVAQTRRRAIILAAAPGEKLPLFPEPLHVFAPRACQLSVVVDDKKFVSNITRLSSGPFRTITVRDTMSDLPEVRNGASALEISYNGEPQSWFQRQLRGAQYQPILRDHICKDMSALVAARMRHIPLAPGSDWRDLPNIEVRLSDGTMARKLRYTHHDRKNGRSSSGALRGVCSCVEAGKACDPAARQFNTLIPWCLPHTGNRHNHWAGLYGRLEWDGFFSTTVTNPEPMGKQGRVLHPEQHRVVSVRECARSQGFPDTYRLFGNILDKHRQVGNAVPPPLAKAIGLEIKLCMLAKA
T4 sequence (P26358 351-1600): as above
T2 sequence (Q86U44 whole entry): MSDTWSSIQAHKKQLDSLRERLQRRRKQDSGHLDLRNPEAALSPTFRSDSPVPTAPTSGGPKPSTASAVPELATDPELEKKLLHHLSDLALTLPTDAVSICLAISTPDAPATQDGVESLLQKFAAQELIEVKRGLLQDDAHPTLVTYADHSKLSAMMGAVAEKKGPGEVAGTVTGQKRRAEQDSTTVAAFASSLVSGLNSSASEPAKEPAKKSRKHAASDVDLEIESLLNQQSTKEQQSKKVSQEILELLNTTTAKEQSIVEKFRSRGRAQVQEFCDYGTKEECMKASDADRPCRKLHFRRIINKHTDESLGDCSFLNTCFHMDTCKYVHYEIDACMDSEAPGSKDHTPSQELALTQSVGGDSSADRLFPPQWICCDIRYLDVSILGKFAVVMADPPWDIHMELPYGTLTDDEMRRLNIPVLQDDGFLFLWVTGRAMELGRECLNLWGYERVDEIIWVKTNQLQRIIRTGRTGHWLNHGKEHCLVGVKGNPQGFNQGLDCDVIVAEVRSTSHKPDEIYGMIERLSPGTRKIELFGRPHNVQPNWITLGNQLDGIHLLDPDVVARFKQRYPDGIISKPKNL

In the case of `O=C(O)c1ccc(O)c2ncccc12` [IOX1, reference compound], the “Effect on binding of tri-MBD1” value in [1] (high concentration (over 50 μM)) was “can inhibit the binding of tri-MBD1”.
Broadly, the Ki is the dissociation constant of the complex between target and ligand, obtained from inhibition or displacement. Lower therefore signals higher affinity. `Nc1ncnc2c1ncn2[C@@H]1O[C@H](CSCC[C@H](N)C(=O)O)[C@@H](O)[C@H]1O` [SAH]: in series [2], the affinity corresponds to a Ki of 2.06 ± 2.8 µM.
For orientation: IC50 means the point on the concentration scale where inhibition reaches its midpoint. Consider `O=c1oc2c(O)c(O)cc3c(=O)oc4c(O)c(O)cc1c4c23` [ellagic acid], for which the “Effect on DNA binding of DNMT1” value in series [3] is “competed with the binding of DNA”; in series [3] (listed as Ellagic acid), “disturbed the DNA-DNMT1”. Further, the “Interference with the assay (counter screen)” value in [1] (DNMT1 assay format, enzyme removed) is reported as “didn’t interference the assay”. For the same molecule, the “Mechanism with respect to cofactor SAM” value in series [4] (cofactor-competitive assay, increasing SAM) is on record as “SAM-noncompetitive”. For the same molecule, in series [4] (different concentrations of SAM, read-out: IC50 against DNMT1), the IC50 was ~67 µM.
As for `O=c1c(O)c(-c2ccc(O)c(O)c2)oc2cc(O)cc(O)c12` [quercetin], the “Effect on RNA binding of ALKBH5” value is “did not affect the RNA binding of ALKBH5” in [5] and “didn’t affect the RNA binding” in [5] (listed as Quercetin). Besides, in series [6], the “Direct binding to ALKBH5 catalytic domain (CPMG, STD)” value was “strongly bound”. In addition, the “Activity during the TET2 demethylation reaction” value in series [7] was “high activity”. In addition, the ΔTm at 100 µM in series [8] is 2.57 °C. The “Change of IC50 in the ALKBH5 reaction with 2-OG concentration” value in [9] is given as “did not significantly change”. Besides, the “Interference with the assay (counter screen)” value in series [10] is recorded as “didn’t interference the assay”.
As to GAACCGGACUGUCUUA (ssRNA, m6A at position 8) [m6A-modified RNA], the binding result in series [11] is recorded as “binds”.

B1: fully-methylated DNA [M/M] (dsDNA)
DNA 1: TACGACCAGGAT
DNA 2: ATCCTGGTCGTA
modifications: 5mC at position 3 of top strand and position 9 of bottom strand
Take B1: the binding result in [12] is “binds”.

The values are drawn from publication PMC8789064, “High-Throughput-Methyl-Reading (HTMR) assay: a solution based on nucleotide methyl-binding proteins enables large-scale screening for DNA/RNA methyltransferases and demethylases” (Nucleic Acids Research, 2021).
